The assay concerns the target biotinylated FKBP in the presence of everolimus (RAD001). In words: EC50 direct binding assay (AlphaLISA): FLAG FRB protein and biotinylated FKBP with serially diluted everolimus. The following applies: 30 nM FLAG-tagged FRB, 30 nM biotinylated FKBP; everolimus serial diluted 1:3 from 600 nM. The method, then:
In a direct binding assay, unlabeled candidate mutant FRB is incubated in solution with tagged wild-type FKBP in the presence of the dimerization molecule, e.g., under conditions suitable for binding of FRB to the dimerization molecule and dimerization of FRB and FKBP. Tagged FKBP can be removed from the reaction by affinity purification; candidate mutant FRB that is able to bind the dimerization molecule and dimerize with the tagged FKBP will also be removed. […] EC50 values for direct binding affinity can then be calculated using methods known in the art.
FRB mutations were also ranked in an alternative assay format. Briefly, FRB proteins incorporating single and double mutations (SEQ ID NO: 54-58) were produced as FLAG tagged constructs in E. coli as described previously. 30 nM (final) of biotinylated FKBP (SEQ ID NO: 59) and each FLAG FRB protein were combined in the presence of everolimus serial diluted 1:3 from a starting final concentration of 600 nM into a 96 well ½ surface flat-bottom plate (PerkinElmer) and incubated for one hour at room temperature. All dilutions were made in 1× AlphaLISA Immunoassay buffer (PerkinElmer). Anti-Flag acceptor beads (PerkinElmer) were added at 10 ug/ml final concentration and incubated for one hour at room temperature. Streptavidin donor beads (PerkinElmer), were then added at a final concentration of 40 ug/ml and the plate was protected from light and incubated for 30 minutes at room temperature. The plate was then read on the PerkinElmer EnVision Multiplate reader equipped with the Alpha Module using excitation of 680 nm and a 570 nm Emission filter.

Here are results for four substances from patent US20190054117A1, “DIMERIZATION SWITCHES AND USES THEREOF” (priority 2014, published 2019).

Sequence of biotinylated FKBP in the presence of everolimus (RAD001) (P62942 2-108 limits assumed): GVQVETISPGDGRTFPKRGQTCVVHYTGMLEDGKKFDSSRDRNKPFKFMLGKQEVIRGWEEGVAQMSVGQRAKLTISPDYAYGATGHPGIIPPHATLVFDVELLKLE

For “E2032L: mutant FRB derived switch domain with E2032L; His-tagged (competition) or His-FLAG-tagged (direct assay)”, the EC50 was found to be 2.15 nM. Turning to “T2098L: mutant FRB derived switch domain with T2098L; His-tagged (competition) or His-FLAG-tagged (direct assay)”, the concentration for a half-maximal effect (EC50) is 1.44 nM.

On to “Wild type FRB (1): wild type FRB domain of FRAP/mTOR (residues 2021-2113); His-tagged in competition assay, His-FLAG-tagged in direct assay [reference compound]”, for which the EC50 came to 3.9 nM. Next, “E2032I: mutant FRB derived switch domain with E2032I; His-tagged (competition) or His-FLAG-tagged (direct assay)”: 2.46 nM.
